Assays:
[1] = tested on: Pseudomonas putida; experiment: Kinetic inactivation against mandelate racemase from Pseudomonas putida ATCC 12633 in a solution of D2O
[2] = tested on: Pseudomonas putida; experiment: Kinetic inactivation against mandelate racemase from Pseudomonas putida ATCC 12633

With `O=C(O)[C@@H](O)c1ccccc1` as the compound, how does the K inact [1] read?
Its K inact is 0.2 min⁻¹.

And the K inact [2]?
Its K inact is 0.28 min⁻¹.
